This test addresses DNA (cytosine-5)-methyltransferase 1 (Homo sapiens, UniProt P26358). Put plainly: inhibition of DNA methylation by DNMT1 – biochemical, fluorescent molecular beacon, confirmation (AID 602386).

SMILES strings stand for the structures.

DNA (cytosine-5)-methyltransferase 1, sequence (P26358 whole entry): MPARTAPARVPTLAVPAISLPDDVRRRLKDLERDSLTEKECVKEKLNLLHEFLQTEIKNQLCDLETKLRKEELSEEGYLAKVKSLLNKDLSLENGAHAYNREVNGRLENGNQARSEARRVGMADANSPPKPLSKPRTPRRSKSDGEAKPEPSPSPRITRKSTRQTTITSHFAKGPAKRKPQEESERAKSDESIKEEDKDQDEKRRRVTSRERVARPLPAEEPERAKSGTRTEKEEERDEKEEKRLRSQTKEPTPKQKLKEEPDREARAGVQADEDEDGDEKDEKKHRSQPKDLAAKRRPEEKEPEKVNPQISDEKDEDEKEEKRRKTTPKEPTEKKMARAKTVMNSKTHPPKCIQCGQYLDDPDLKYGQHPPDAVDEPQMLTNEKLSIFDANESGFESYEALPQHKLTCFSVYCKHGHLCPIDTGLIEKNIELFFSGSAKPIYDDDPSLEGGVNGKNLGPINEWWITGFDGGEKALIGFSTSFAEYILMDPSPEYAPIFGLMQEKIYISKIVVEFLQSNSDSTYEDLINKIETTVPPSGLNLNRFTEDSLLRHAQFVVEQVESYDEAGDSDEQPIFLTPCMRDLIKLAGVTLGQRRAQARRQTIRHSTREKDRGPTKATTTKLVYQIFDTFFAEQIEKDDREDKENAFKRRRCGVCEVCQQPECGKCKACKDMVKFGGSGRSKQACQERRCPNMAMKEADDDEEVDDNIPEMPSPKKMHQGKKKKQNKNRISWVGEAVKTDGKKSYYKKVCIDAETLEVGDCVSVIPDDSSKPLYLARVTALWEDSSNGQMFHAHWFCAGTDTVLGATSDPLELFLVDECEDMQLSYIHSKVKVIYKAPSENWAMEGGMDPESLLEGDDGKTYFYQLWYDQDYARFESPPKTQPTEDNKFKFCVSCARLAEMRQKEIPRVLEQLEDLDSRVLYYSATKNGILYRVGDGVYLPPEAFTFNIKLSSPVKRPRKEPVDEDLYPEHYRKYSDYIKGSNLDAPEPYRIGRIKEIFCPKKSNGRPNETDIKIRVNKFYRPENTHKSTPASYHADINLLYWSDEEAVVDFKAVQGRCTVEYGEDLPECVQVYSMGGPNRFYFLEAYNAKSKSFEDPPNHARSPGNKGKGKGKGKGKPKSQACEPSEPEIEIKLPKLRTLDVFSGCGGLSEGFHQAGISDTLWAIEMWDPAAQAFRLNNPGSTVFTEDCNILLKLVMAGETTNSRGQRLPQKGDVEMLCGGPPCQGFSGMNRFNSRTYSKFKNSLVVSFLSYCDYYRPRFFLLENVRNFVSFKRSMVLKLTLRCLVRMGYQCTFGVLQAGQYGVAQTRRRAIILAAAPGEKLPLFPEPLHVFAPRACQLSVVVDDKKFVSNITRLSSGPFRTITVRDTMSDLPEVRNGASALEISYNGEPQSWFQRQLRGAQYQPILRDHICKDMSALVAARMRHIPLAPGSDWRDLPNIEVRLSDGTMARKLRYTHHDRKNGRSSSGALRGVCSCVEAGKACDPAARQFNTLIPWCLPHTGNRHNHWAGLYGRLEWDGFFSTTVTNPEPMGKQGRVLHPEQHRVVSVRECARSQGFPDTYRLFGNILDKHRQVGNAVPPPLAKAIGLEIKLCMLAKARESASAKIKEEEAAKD

On to `C=c1[nH]n(-c2cccc(C(=O)O)c2)c(=O)c1=CC=Cc1ccco1` [SMR000113614], for which the 50% inhibitory concentration (IC50) (in general, the concentration that gives 50% inhibition) came out at 1.18 µM.

In turn, `COc1ccc(OC)c(-n2c(O)c3o[nH]c(-c4ccccc4Cl)c-3c2=O)c1` [SMR000046218] displayed an IC50 of 4.35 µM.

In turn, `NC(=NNC=c1ccc(=C2C=CC(=O)C(C(=O)O)=C2)o1)N[N+](=O)[O-]` [5-(5-{2-[amino(nitroimino)methyl]carbonohydrazonoyl}-2-furyl)-2-hydroxybenzoic acid] registered a concentration for half-maximal inhibition (IC50) of 3.94 µM.

`O=C1N=c2ccccc2=C1NNc1ccc(F)cc1` yielded an IC50 of 19.3 µM.

Take `CCOC1=CC(=Cc2c(-c3ccccc3)[nH]n(-c3nc(-c4ccc(Br)cc4)cs3)c2=O)C=CC1=O`: the midpoint of inhibition, the IC50, lay at 4.35 µM.

For the molecule `NS(=O)(=O)c1ccc(NN=C2C=CC(=O)NC2=O)cc1` [SMR000528591], the IC50 was found to be 7.65 µM.

For the molecule `COc1cc(NS(=O)(=O)c2ccc(NC(=S)NC(=O)c3sc4ccccc4c3Cl)cc2)nc(OC)n1` [3-chloranyl-N-[[4-[(2,6-dimethoxypyrimidin-4-yl)sulfamoyl]phenyl]carbamothioyl]-1-benzothiophene-2-carboxamide], the IC50 was found to be 41 µM.

For the molecule `C=CCOc1ccc(CN=Nc2ccc(S(=O)(=O)Nc3ccccc3C(=O)O)cc2[N+](=O)[O-])cc1OC` [2-[[4-[2-[(3-methoxy-4-prop-2-enoxy-phenyl)methylidene]hydrazinyl]-3-nitro-phenyl]sulfonylamino]benzoic acid], half-maximal inhibition (IC50) required 5.32 µM.

Take `Cc1ccc(C(=O)N[n+]2cc(O)[c-](-c3nc(-c4cccc([N+](=O)[O-])c4)cs3)c2N)cc1` [MLS000391743]: the IC50 is > 99 µM.

The molecule `CCOc1ccc(CN=Nc2ccc(S(=O)(=O)Nc3ccccc3C(=O)O)cc2[N+](=O)[O-])cc1` gave a 50% inhibitory concentration (IC50) of 5.78 µM.

`O=C(CSc1nc(O)cc(=O)[nH]1)Nc1ccccc1[N+](=O)[O-]` [SMR000620617] returned an IC50 of 8.51 µM.

`COc1ccc(C=c2c(=CSc3ccc(Cl)cc3)[nH]n(-c3nc4ccccc4s3)c2=O)cc1` [SMR000193462]: the half-maximal inhibitory concentration (IC50) stood at 2.86 µM.

`Cc1[nH]n(-c2ccccc2)c(=O)c1C=C1NC(=S)NC1=O` [5-methyl-4-[(Z)-(5-oxo-2-sulfanylideneimidazolidin-4-ylidene)methyl]-2-phenyl-4H-pyrazol-3-one] showed an IC50 of 8.39 µM.

On to `O=C(/C=C/c1ccco1)NCC(=O)NNC1=c2ccccc2=NC1=O` [MLS001075666], for which the half-maximal inhibitory concentration (IC50) amounted to 3.25 µM.

Consider `CSc1ccc(CN=Nc2ccc(S(=O)(=O)Nc3ccccc3C(=O)O)cc2[N+](=O)[O-])cc1` [MLS002245633], for which half-maximal inhibition (IC50) was put at 3.26 µM.

Turning to `COc1ccccc1N1CC=[N+](N[CH-]c2ccc(Cl)c([N+](=O)[O-])c2)CC1` [(E)-1-(4-chloro-3-nitrophenyl)-N-[4-(2-methoxyphenyl)piperazin-1-yl]methanimine], the IC50 is > 99 µM.

`CCCCn1c(NC(=S)Nc2ccccc2)nc2ccccc21` gave an IC50 of 1.02 µM.

As to `CC=CC=CC(=O)C1C(=O)[C@]2(C)C(=O)C(C)(O)[C@H]1[C@H]([C@]1(C)OC(=O)C(C)C1=O)[C@H]2C(=O)C=CC=CC` (stereo partly drawn) [(1S,4R,6E,7S,8R)-8-[(2E,4E)-hexa-2,4-dienoyl]-2-hydroxy-7-[(2S)-5-hydroxy-2,4-dimethyl-3-oxofuran-2-yl]-6-[(2E,4E)-1-hydroxyhexa-2,4-dienylidene]-2,4-dimethylbicyclo[2.2.2]octane-3,5-dione], the concentration for half-maximal inhibition (IC50) turned out to be 5.25 µM.

Regarding `CCN(CC)CCOc1ccc2c(c1)C(N=O)c1cc(OCCN(CC)CC)ccc1-2` [MLS000518859], the concentration for half-maximal inhibition (IC50) is > 99 µM.

The values are drawn from BindingDB's records for doi:10.7270/Q2NC5ZRN (Burnham Center For Chemical Genomics, 2012).
